In patent US20230220047A1, “PEPTIDES FOR TREATMENT OF SEPSIS AND CANCER” (NORWEGIAN UNIVERSITY OF SCIENCE AND TECHNOLOGY (NTNU), priority 2020, published 2023):

Key:
THP-1 cells = experiment: LDH cytotoxicity assay in THP-1 cells; conditions: 1 h pre-treatment
Experimental: For every assay, separate wells were seeded for the required controls (Spontaneous LDH Release Controls and Maximum LDH Release Control) with the same amount of cells as used for peptide treatments. All supernatants were analysed in triplicate with the average value of technical replicates taken into calculations.
THP-1 cells were pre-treated with increasing concentrations of P7-Arg11 and control peptide Arg11 for 1 h (FIG. 3).

TLR4 = experiment: Cytokine expression in primary human monocytes stimulated by LPS or E. coli particles; format: cell-based
Experimental: Use of human monocytes from blood donors was approved by the Regional Committees for Medical and Health Research Ethics at the Norwegian University of Science and Technology (NTNU). Human monocytes were isolated from buffy coats by adherence as previously described (Husebye et al., Immunity 33: 583-596, 2010). Briefly, freshly prepared buffy coat (The Blood Bank, St. Olav's Hospital, Trondheim, Norway) was diluted in 100 ml PBS, and PBMCs isolated by density gradient centrifugation using Lymphoprep (Axis-Shield) according to the manufacturer's instructions. […] Cells were counted using a Z2 Coulter Particle Count and Size Analyzer (Beckman Coulter) on program B, re-suspended in RPM11640 (Sigma) supplemented with 5% pooled human serum at a concentration of 8×10^6 per ml and seeded into 6-well (1 ml per well) or 24-well (0.5 ml per well) cell culture dishes. […] Total RNA was isolated from the cells using Qiazol reagent #79306 from QIAGEN, and chloroform extraction followed by purification on RNeasy Mini columns with DNAse digestion (Qiagen). cDNA was prepared using the Maxima First Strand cDNA Synthesis Kit for quantitative real-time polymerase chain reaction (RT-qPCR) (Thermo Fisher Scientific) according to the manufacturer's protocol. qPCR was performed using the PerfeCTa qPCR FastMix (Quanta Biosciences) in replicates and cycled in a StepOnePlusTM Real-Time PCR cycler. […]

primary human monocytes = experiment: Confocal analysis of E. coli particle uptake by primary human monocytes; format: cell-based; conditions: 15 μM, level comparable with CytoD treated cells
Experimental: Cells were pre-incubated with Pen or P7-Pen peptides, followed by addition of Alexa Fluor 488-labeled bioparticles for the times indicated (15, 30 or 45 min). Fluorescent bacteria particles were counted by spot-detection in Bitplane Imaris imaging software and used to calculate the number of particles per cell. […] Pre-incubation with 3 μM cytochalasin D (CytoD, and inhibitor of actin polymerization) inhibited uptake of E. coli to a similar extent as P7-Pen.
THP-1 cells, THP-1^cherry cells or human PBMC were seeded in 24-well glass-bottom plates (MatTek Corporation), 125,000 cells/well. The THP-1 cells were differentiated into macrophages with 60 ng/ml PMA for 72 h and thereafter rested for 48 h, whereas the PBMC were used the day after isolation. The P7-penatratin peptide or control peptide was added to the cells 30 min before stimulation at 15 μM concentration. If used, 3 μM cytochalasin D (CytoD) was added simultaneously. […] A spot detection mode in the Bitplan Imaris software was used to define individual phagosomes and cells were counted manually. […] Fluorescence voxel intensity of TRAM^cherry at the phagosome is also presented. Statistical significance was calculated in GraphPad Prism by One-way ANOVA Kruskal-Wallis multiple comparison test. […]

THP-1 TRAM KO cells = experiment: qPCR of LPS-mediated cytokine expression in THP-1 TRAM KO cells; format: cell-based, human; conditions: 10 μM, LPS 100 ng/ml 2 or 4 h
Experimental: Control THP-1 CRISPR cells and TRAM KO cells were pre-treated with 10 μM peptides—control peptides with amino acid substitutions (C3-Pen) or TRAM-targeting peptide Pep7-Penetratin (P7-Pen)—for 30 min before stimulation with LPS (100 ng/ml) for 2 or 4 h. Cells were lysed with Qiazol, followed by RNA isolation and quantitative PCR analysis of cytokine mRNA expression.
In human cells (THP-1 cell line) TRAM expression was not required for TLR4-mediated IL-1β or TNF expression in response to LPS or E. coli particles (FIG. 21, lower panels). P7-Pen was as effective in reducing expression of pro-inflammatory cytokines in THP-1 TRAM KO cells as in control cells (FIG. 22).

Row | Substance | toxicity (LDH assay) (THP-1 cells; 5 μM and 10 μM) | toxicity (LDH assay) (THP-1 cells; 20 μM) | IFNβ, TNF, IL-1β and IL-6 expression in response to TLR4 stimulation (TLR4; 15 μM, 30 min pre-treatment, LPS 100 ng/ml, all tested donors) | reducing cytokine secretion by monocytes stimulated by E. coli particles (TLR4; P7-Pen 15 μM vs P7-Arg11 10 μM) | uptake of E. coli particles (primary human monocytes) | reducing expression of pro-inflammatory cytokines in THP-1 TRAM KO cells versus control cells (THP-1 TRAM KO cells)
1 | Ac-ITVYASVTLTGRRRRRRRRRRR-NH2 [Peptide P7-Arg11] | essentially non-toxic | increased toxicity | – | – | – | –
2 | Ac-ITVYASVTLTGRQIKIWFQNRRMKWKK-NH2 [Peptide P7-Pen] | – | – | significantly decreased | more effective than P7-Arg11 | inhibited | as effective
